Data set [1] concerns SARS-CoV-2. Type of data set: cell-based. As to conditions: for Number of copies of viral genome (MOI = 0.05): Vero E6, 48 h; for Inhibitory activity on viral RNA load: dependence on dose (in words) / Viral nucleic acid load in vero E6 cells infected with SARS-CoV-2 (in words): 48 h after infection.
Data set [2] concerns Vero E6 cells. The data set is described as follows: Detection of drug cytotoxicity by CCK-8 kit. The format is cell-based. The conditions noted are these: for Cell viability (% of negative control): 48 h. As to the method: The detection of drug cytotoxicity was performed by CCK-8 kit (Beoytime). Specific steps were as follows:
(1) 1×10^4 Vero E6 (ATCC) cells were inoculated into a 96-well plate and cultured at 37° C. for 8 hours.
(§1) (2) The test drug was diluted with DMSO to achieve an appropriate stock solution concentration, and then diluted with MEM medium (purchased from Gibco, Cat. No. 10370021) containing 2% FBS (purchased from Gibco, Cat. No. 16000044) to the same concentration as that for the drug treatment. The original medium in the 96-well plate was discarded, 100 μL of drug-containing MEM medium was added to the cells, and three replicate wells were made for each concentration. Negative controls (adding DMSO and medium to the cell wells without adding drug) and blank controls (no cells, adding DMSO and medium) were set. After the drug was added, the cells were cultured at 37° C. for 48 hours.
(3) 20 μL of CCK-8 solution (Beoytime) was added to the wells to be tested, mixed gently without generating air bubbles, and continued to incubate at 37° C. for 2 hours. OD450 was read on a microplate reader (purchased from Molecular Devices, model SpectraMax M5), and cell viability was calculated:
Cell viability (%)=(A(drug treatment group)−A(blank control))/(A(negative control)−A(blank control))×100%
wherein A represents reading of microplate reader.
as §1, with “of the” for “of”

The values that follow come from patent US20230293485A1, “APPLICATION OF ARTEMISININ COMPOUND IN TREATMENT OF CORONAVIRUS INFECTION” (ACADEMY OF MILITARY MEDICAL SCIENCES, priority 2020, published 2023).

Each structure is given as a SMILES string. Read-outs that look alike come from different tables or passages of the source.

For `C=C1C(=O)O[C@@]23[C@H]1CC[C@@H](C)[C@@H]2CC[C@@]1(C)O[C@@H]31` [arteannuin B], the “Number of copies of viral genome (MOI = 0.05)” value (shortened to “Number”) in data set [1] (1.56 μM drug) was determined as 99554711 copies; in data set [1] (3.13 μM drug), 99188163 copies; in data set [1] (6.25 μM drug) it was 98310684 copies; in data set [1] (12.5 μM drug) it was 13307075 copies; in data set [1] (25 μM drug) it was 342654 copies; in data set [1] (50 μM drug), 176411 copies. The “Inhibitory activity on viral RNA load: dependence on dose (in words)” value (from here on “Inhibitory activity on viral RNA load”) in data set [1] is “dose-dependent”. In data set [1], the “Viral nucleic acid load in vero E6 cells infected with SARS-CoV-2 (in words)” value (“Viral nucleic acid load” below) is listed as “effectively reduced viral nucleic acid load”. For the same compound, the “Inhibition of replication of SARS-CoV-2 virus genome in the infection supernatant (in words)” value (“Inhibition” for short) in data set [1] (at 50 μM, 25 μM and 12.5 μM) is “effectively inhibit”. The “Cell viability (% of negative control)” value is 93.55 % of negative control in data set [2] (0.78 μM drug); 90.63 % of negative control in data set [2] (1.56 μM drug); 94.86 % of negative control in data set [2] (3.13 μM drug); 102.66 % of negative control in data set [2] (6.25 μM drug); 111.44 % of negative control in data set [2] (12.5 μM drug); 95.10 % of negative control in data set [2] (25 μM drug). The “Cell viability (% of negative control)” value in data set [2] (50 μM drug) is on record as 74.40 % of negative control; in data set [2] (100 μM drug), 26.24 % of negative control. The “Toxic effect on the cells (in words)” value in data set [2] (at 25 μM or lower) was “no toxic effect”; in data set [2] (at 50 μM) it was “a certain toxicity”.

As for `CO[C@H]1O[C@@H]2O[C@@]3(C)CC[C@H]4[C@H](C)CC[C@@H]([C@H]1C)[C@@]24OO3` [artemether], the “Number” value is on record as 49305413 copies in data set [1] (6.25 μM drug); 68497905 copies in data set [1] (12.5 μM drug); 32850309 copies in data set [1] (25 μM drug); 26849476 copies in data set [1] (50 μM drug); 3326694 copies in data set [1] (100 μM drug); 250314 copies in data set [1] (200 μM drug). Besides, the “Cell viability (% of negative control)” value was 107.12 % of negative control in data set [2] (1.56 μM drug); 103.68 % of negative control in data set [2] (3.13 μM drug); 115.71 % of negative control in data set [2] (6.25 μM drug); 115.49 % of negative control in data set [2] (12.5 μM drug); 118.96 % of negative control in data set [2] (25 μM drug); 120.26 % of negative control in data set [2] (50 μM drug). Also, the “Cell viability (% of negative control)” value in data set [2] (100 μM drug) is 130.18 % of negative control; in data set [2] (200 μM drug), 132.83 % of negative control. The “Toxic effect on the cells (in words)” value in data set [2] (all the tested concentrations) is listed as “no toxic effect”.

Consider `C[C@@H]1CC[C@H]2[C@@H](C)C(=O)O[C@@H]3O[C@@]4(C)CC[C@@H]1[C@]32OO4` [artemisinin], for which the “Number” value in data set [1] (6.25 μM drug) was 79058074 copies; in data set [1] (12.5 μM drug), 72012135 copies; in data set [1] (25 μM drug) it was 61918172 copies; in data set [1] (50 μM drug), 31079912 copies; in data set [1] (100 μM drug), 37237188 copies; in data set [1] (150 μM drug), 25440652 copies. The “Inhibitory activity on viral RNA load” value in data set [1] was “dose-dependent”. Further, in data set [1], the “Viral nucleic acid load” value is listed as “effectively reduced viral nucleic acid load”. In addition, the “Inhibition” value in data set [1] (at 150 μM, 100 μM and 50 μM) is “effectively inhibit”. In addition, the “Cell viability (% of negative control)” value in data set [2] (1.56 μM drug) is 98.45 % of negative control; in data set [2] (3.13 μM drug), 101.55 % of negative control; in data set [2] (6.25 μM drug) it was 104.23 % of negative control; in data set [2] (12.5 μM drug), 112.55 % of negative control; in data set [2] (25 μM drug), 104.26 % of negative control; in data set [2] (50 μM drug), 110.71 % of negative control. Also, the entries for the “Cell viability (% of negative control)” value in data set [2] (100 μM drug) and in data set [2] (200 μM drug) were 109.14 % of negative control and 97.14 % of negative control, respectively. Also, the “Toxic effect on the cells (in words)” value in data set [2] (all the tested concentrations) is “no toxic effect”.

Regarding `C[C@H]1[C@H](OC(=O)CCC(=O)O)O[C@@H]2O[C@@]3(C)CC[C@H]4[C@H](C)CC[C@@H]1[C@@]24OO3` [artesunate], the “Number” value is 228511812 copies in data set [1] (0.94 μM drug); 171362509 copies in data set [1] (1.88 μM drug); 170594446 copies in data set [1] (3.13 μM drug); 113126147 copies in data set [1] (6.25 μM drug); 111098018 copies in data set [1] (12.5 μM drug); 70210200 copies in data set [1] (25 μM drug). Moreover, the “Inhibitory activity on viral RNA load” value in data set [1] is listed as “dose-dependent”. The “Viral nucleic acid load” value in data set [1] was “effectively reduced viral nucleic acid load”. Also, in data set [1] (at 25 μM, 12.5 μM and 6.25 μM), the “Inhibition” value is recorded as “effectively inhibit”. Moreover, the “Cell viability (% of negative control)” value in data set [2] (0.78 μM drug) was 100.09 % of negative control; in data set [2] (1.56 μM drug), 99.91 % of negative control; in data set [2] (3.13 μM drug), 97.52 % of negative control; in data set [2] (6.25 μM drug) it was 100.64 % of negative control; in data set [2] (12.5 μM drug), 93.38 % of negative control; in data set [2] (25 μM drug) it was 84.24 % of negative control. The results for the “Cell viability (% of negative control)” value in data set [2] (50 μM drug) and in data set [2] (100 μM drug) were 55.44 % of negative control and 21.71 % of negative control, respectively. The “Toxic effect on the cells (in words)” value is on record as “no toxic effect” in data set [2] (at 12.5 μM or lower) and “a slight toxicity” in data set [2] (at 25 μM).

Consider `C[C@H]1[C@@H](O)O[C@@H]2O[C@@]3(C)CC[C@H]4[C@H](C)CC[C@@H]1[C@@]24OO3` [dihydroartemisinin], for which the “Number” value is recorded as 111625955 copies in data set [1] (0.94 μM drug); 68962319 copies in data set [1] (1.88 μM drug); 90162353 copies in data set [1] (3.13 μM drug); 55425811 copies in data set [1] (6.25 μM drug); 31485734 copies in data set [1] (12.5 μM drug); 23363010 copies in data set [1] (25 μM drug). In addition, the “Cell viability (% of negative control)” value in data set [2] (0.78 μM drug) is 93.93 % of negative control; in data set [2] (1.56 μM drug) it was 98.80 % of negative control; in data set [2] (3.13 μM drug) it was 93.03 % of negative control; in data set [2] (6.25 μM drug) it was 100.38 % of negative control; in data set [2] (12.5 μM drug), 88.94 % of negative control; in data set [2] (25 μM drug), 66.36 % of negative control. The “Cell viability (% of negative control)” value in data set [2] (50 μM drug) is reported as 22.18 % of negative control; in data set [2] (100 μM drug), 2.33 % of negative control. Besides, the “Toxic effect on the cells (in words)” value is recorded as “no toxic effect” in data set [2] (at 6.25 μM or lower) and “a slight toxicity” in data set [2] (at 12.5 μM).
